Test results reported in publication PMC9688530, “Development of Ic-ELISA and Colloidal Gold Lateral Flow Immunoassay for the Determination of Cypermethrin in Agricultural Samples” (Biosensors, 2022).

Legend:
[1] = tested on: anti-CYP mAb 2G7H9; assay: ic-ELISA based on mAb 2G7H9; format: binding, mouse; conditions: CR = IC50 of CYP/IC50 of analogue × 100%
Procedure: The ic-ELISA procedure was executed according to previous studies. Each well of the ELISA plate was coated with 100 μL of coating antigen diluted with carbonate buffer (0.05 mol/L, pH 9.6) at 4 °C overnight. After washing three times with phosphate-buffered saline (PBS, 0.01 mol/L, pH 7.4) containing 1‰ Tween-20, the wells were blocked with 200 μL of 5% skim milk powder in PBS at 37 °C for two hours. After the same washing procedure, 50 μL of CYP standard solution and 50 μL of mAb were pipetted into each well and incubated at 37 °C for one hour. After washing five times, 100 μL per well of 0.5‰ horseradish peroxidase-labeled goat anti-mouse IgG antibody in PBS was added and incubated at 37 °C for one hour. After the wells were washed five times, 100 μL per well of fresh substrate solution (0.1 mg/mL 3,3′,5,5′-tetramethylbenzidine and 0.024‰ H2O2 in 0.1 M citrate acid buffer) was added to react at 37 °C for 15 min. Then, 50 μL per well of 0.2 mol/L H2SO4 was used to stop the reaction, and the absorbances were read at 450 nm with a microplate reader.
Under the optimal conditions, a standard curve was constructed using a series of concentrations of standard solutions (50, 25, 12.5, 6.25, 3.13, 1.56, 0.78, 0.39 and 0.20 ng/mL) to assess the sensitivity of ic-ELISA. The IC50 and linear range (IC10–IC90) were calculated by a logistic equation established with Origin Pro 8.0.
The CRs of the ic-ELISA were calculated with the following equation:CR (%) = (IC50 of CYP/IC50 of analogues) × 100%.

[2] = tested on: anti-CYP mAb; assay: colloidal gold LFIA strip; format: binding, mouse; conditions: for CR of LFIA: CR = vLOD of CYP/vLOD of analogue × 100%; for visual limit of detection (vLOD): optimal buffer
Procedure: Colloidal gold particles were synthesized with trisodium citrate as a reducing agent according to our previous work. For the preparation of colloidal gold mAb, 6.65 μg/mL anti-CYP mAbs were added to the colloidal gold solution adjusted to pH 8.2 using 0.2 mol/L K2CO3 with shaking at room temperature for 1 h. BSA (1%) was used to block free colloidal gold particles. After 1 h, the mixture was centrifuged at 12,000 revolutions per minute (RPM) for 15 min to remove free anti-CYP mAbs. The centrifuged deposits were resuspended using one-tenth of the original volume of sodium borate solution (0.01 mol/L) containing 2% BSA and 3% sucrose and preserved at 4 °C.
As depicted in Figure 1A, the LFIA strip was assembled into four components. The center section of a PVC plate was affixed to an NC membrane. The sample pad and absorption pad were stuck on both ends of the PVC plate, and both overlapped with the NC membrane by 1 mm. A total of 2 mg/mL of hapten 5-BSA and 0.5 mg/mL of GAMA were sprayed onto the NC membrane as the test line and control line, respectively, with 5 mm intervals by an automatic dispenser. After drying at 37 °C for 12 h, the fabricated cards were cut into 4 mm wide LFIA strips.
One hundred microliters of the CYP standard solution and 4 μL of the colloidal gold mAb solution were added into a micropore and mixed. After 5 min, an LFIA strip was inserted into the mixture solution. During the mixed solution migration from the sample pad to the absorbent pad, colloidal gold mAb was captured by the T and C lines, resulting in the appearance of color bands within 10 min. When the T line disappeared or the color intensity of the T line was lower than that of the C line, the result was positive (Figure 1B,C). When the color intensity of the T line was not less than that of the C line, the result was negative (Figure 1D).
The sensitivity of the LFIA strip was evaluated by a series of CYP standard solutions (0.7, 0.6, 0.5, 0.4, 0.3, 0.2, 0.1, 0 μg/mL). For qualitative analysis, the sensitivity of the LFIA strip was appraised by the visual LOD (vLOD) and the cut-off value. The vLOD is the lowest concentration of CYP at which the lighter color of the T line is observed compared to the C line. The cut-off value is the minimum CYP concentration at which no color band appears on the T line.
The CRs of the LFIA were calculated with the following equation:CR (%) = (vLOD of CYP/vLOD of analogues) × 100%.

Row | SMILES | Cross-reactivity rate (%) of ic-ELISA [1] [%] | CR of LFIA [2] [%] | visual limit of detection (vLOD) [2] [µg/mL]
1 | CC1(C)C(C=C(Cl)Cl)C1C(=O)OC(C#N)c1ccc(F)c(Oc2ccccc2)c1 (stereo not drawn) [cyfluthrin] | 31.09 | 30 | 1
2 | CC1(C)C(/C=C(\Cl)C(F)(F)F)C1C(=O)OC(C#N)c1cccc(Oc2ccccc2)c1 (stereo not drawn) [cyhalothrin] | 16.15 | 3 | 10
